Source: ChEMBL document CHEMBL6115010, “Targeting glioma with heteroaromatic alkaloids: A review of potential therapeutics” (Bioorg Med Chem, 2025)
In brackets after ≈: the same amount, converted by molar mass.

Columns and labels:
[1] = Cytotoxicity against human U373 MG cells assessed as reduction in cell growth incubated for 24 hrs by MTT colorimetric assay; assay type: functional, cell-based, U-373MG ATCC
[2] = Toxicity in ip dosed B6D2F1 mouse assessed as maximum tolerated dose measured after 28 days; assay type: organism-based; conditions: in vivo, time 28 day
SW1088 = assay: Cytotoxicity against human SW1088 cells assessed as reduction in cell growth incubated for 24 hrs by MTT colorimetric assay; assay type: functional, cell-based; conditions: SW1088, 24 h
GAMG = assay: Antiproliferative activity against human GAMG cells assessed as reduction in cell viability incubated for 48 hrs by MTS reagent based assay; assay type: functional
U-87 MG [3] = assay: Antiproliferative activity against human U-87 MG cells assessed as reduction in cell viability at 100 uM incubated for 72 hrs by Prestoblue-reagent based assay relative to control; assay type: functional, U-87MG ATCC
H4 = assay: Antiproliferative activity against human H4 cells assessed as reduction in cell viability incubated for 72 hrs by Prestoblue-reagent based assay; assay type: functional; conditions: H4, 72 h
SF-268 [4] = assay: Antiproliferative activity against human SF-268 cells; assay type: functional, cell-based
SF-295 = assay: Cytotoxicity against human SF-295 cells assessed as reduction in cell growth incubated for 96 hrs by MTT assay; assay type: functional, cell-based; conditions: SF-295, 96 h
SF-268 [5] = assay: Cytotoxicity against human SF-268 cells assessed as reduction in cell viability incubated for 72 hrs by SRB assay; assay type: functional, cell-based; conditions: SF-268, 72 h
U-251 [6] = assay: Cytotoxicity against human U-251MG cells assessed as reduction in cell viability incubated for 48 hrs by MTT assay; assay type: functional, cell-based; conditions: U-251, 48 h
[7] = Cytotoxicity against human SHG-44 cells assessed as reduction in cell viability incubated for 48 hrs by MTT assay; assay type: functional, cell-based; conditions: SHG-44, 48 h
CCF-STTG1 [8] = assay: Cytotoxicity against human CCF-STTG1 cells assessed as reduction in cell viability incubated for 48 hrs by MTT assay; assay type: functional, cell-based; conditions: CCF-STTG1, 48 h
[9] = Cytotoxicity against human CHG-5 cells assessed as reduction in cell viability incubated for 48 hrs by MTT assay; assay type: functional, cell-based; conditions: CHG-5, 48 h
U-87 MG [10] = assay: Cytotoxicity against human U-87 MG cells by resazurin dye based assay; assay type: functional, cell-based, U-87MG ATCC
[11] = Cytotoxicity against human U87MG.deltaEGFR cells by resazurin dye based assay; assay type: functional, cell-based
[12] = Cytotoxicity against human SHG-44 cells assessed as reduction in cell viability incubated for 24 hrs by MTT assay; assay type: functional, cell-based; conditions: SHG-44, 24 h
CCF-STTG1 [13] = assay: Cytotoxicity against human CCF-STTG1 cells assessed as reduction in cell viability incubated for 24 hrs by MTT assay; assay type: functional, cell-based; conditions: CCF-STTG1, 24 h
U-251 [14] = assay: Cytotoxicity against human U-251MG cells assessed as reduction in cell viability incubated for 24 hrs by MTT assay; assay type: functional, cell-based; conditions: U-251, 24 h
[15] = Cytotoxicity against human CHG-5 cells assessed as reduction in cell viability incubated for 24 hrs by MTT assay; assay type: functional, cell-based; conditions: CHG-5, 24 h
SH-SY5Y [16] = assay: Cytotoxicity against human SH-SY5Y cells; assay type: functional, cell-based
CCF-STTG1 [17] = assay: Cytotoxicity against human CCF-STTG1 cells assessed as reduction in cell growth incubated for 24 hrs by MTT assay; assay type: functional, cell-based; conditions: CCF-STTG1, 24 h
[18] = Cytotoxicity against human GSC-3 cells assessed as reduction in cell viability incubated for 72 hrs by MTS assay; assay type: functional, cell-based; conditions: GSC-3, 72 h
[19] = Cytotoxicity against human U-343MG cells assessed as reduction in cell growth incubated for 48 hrs by MTT assay; assay type: functional, cell-based
[20] = Cytotoxicity against human CHG-5 cells assessed as reduction in cell growth incubated for 48 hrs by MTT assay; assay type: functional, cell-based; conditions: CHG-5, 48 h
SH-SY5Y [21] = assay: Cytotoxicity against human SH-SY5Y cells assessed as reduction in cell growth incubated for 48 hrs by MTT assay; assay type: functional, cell-based
U-251 [22] = assay: Cytotoxicity against human U-251MG cells assessed as reduction in cell growth incubated for 48 hrs by MTT assay; assay type: functional, cell-based; conditions: U-251, 48 h
[23] = Cytotoxicity against human GL15 cells assessed as reduction in cell growth incubated for 48 hrs by MTT assay; assay type: functional, cell-based; conditions: GL15, 48 h
[24] = Cytotoxicity against human SHG-44 cells assessed as reduction in cell growth incubated for 48 hrs by MTT assay; assay type: functional, cell-based; conditions: SHG-44, 48 h

O=C1c2c(O)ccnc2-c2nccc3c2c1nc1ccccc13
IC50 [1]: 6 µM | MTD at 672 h [2]: > 160 mg/kg | IC50 (SW1088): 6 µM

O=C1c2cccnc2-c2nccc3c2c1nc1cc(Br)ccc13
IC50 [1]: 0.6 µM | MTD at 672 h [2]: 20 mg/kg | IC50 (SW1088): 0.4 µM

COC(=O)C1=CO[C@@H](C)[C@@H]2CN3CC[C@]4(C(=O)Nc5ccccc54)[C@@H]3C[C@H]12
IC50 (GAMG): 20.1 µM

CC1=NCCc2c1[nH]c1ccccc21
inhibition at 100 µM (U-87 MG [3]): 30% | IC50 (H4): 33.5 µM

C[C@@H]1CC[C@H]2C(C)(C)[C@H](O)CC[C@]2(C)[C@@]12Cc1c(O)cc3c(c1O2)C(=O)NC3=O
IC50 (SF-268 [4]): 43.3 µM

C[C@@H]1CC[C@H]2C(C)(C)[C@H](O)CC[C@]2(C)[C@@]12Cc1c(O)cc3c(c1O2)CNC3=O
IC50 (SF-268 [4]): 67.2 µM

C[C@@H]1CC[C@H]2C(C)(C)[C@H](O)CC[C@]2(C)[C@@]12Cc1c(O)cc3c(c1O2)C(=O)NC3
IC50 (SF-268 [4]): 11.2 µM

COc1cc2c(cc1OC)[C@H](O)[C@@H]1c3c(cc4c(c3-2)OCO4)CCN1C
IC50 (SF-295): 1.41 µg/mL (≈ 3.97 µM)

C/C=C(\C)[C@H](O)[C@H](C)/C=C(C)/C=C(\C)C/C(C)=C/Cc1nc(OC)c(OC)c(O)c1C
IC50 (SF-268 [5]): 30.2 µM

COC(=O)N1CCc2cc(O)c(OC)c3c4c(cc1c23)C(=O)C=C(OC)C4=O
IC50 (U-251 [6]): 11.3 µM | IC50 [7]: 10.8 µM | IC50 (CCF-STTG1 [8]): 9.2 µM | IC50 [9]: 10.8 µM

Oc1cc2c3c(c1O)c1cc4c(cc1c[n+]3CC2)OCO4
IC50 (U-251 [6]): 11.8 µM | IC50 [7]: 9.4 µM | IC50 (CCF-STTG1 [8]): 10.3 µM | IC50 [9]: 10.2 µM

COc1cc(OC)c2c(=O)c3ccccc3n(C)c2c1
IC50 (U-87 MG [10]): 17.6 µM | IC50 [11]: 8.88 µM

CC(=O)O[C@@H]1C2C3C[C@H]4C5=Nc6ccccc6[C@]51C[C@@H]2[N+]4([O-])[C@@H](C)[C@@H]3C=O (some centres not stated)
IC50 [12]: 11.8 µM | IC50 (CCF-STTG1 [13]): 12.3 µM | IC50 (U-251 [14]): 12.3 µM | IC50 [15]: 12.9 µM

Cc1cc2[nH]c(=O)c(=O)n(CC(O)C(O)C(O)CO)c2cc1C (configuration not stated)
IC50 (SH-SY5Y [16]): 71.2 µM

C/C=C1\C2C[C@H]3C4=Nc5ccccc5[C@]45C[C@@H](C2[C@H]5OC(C)=O)[N+]3([O-])[C@H]1C (some centres not stated)
IC50 [12]: 17.4 µM | IC50 (CCF-STTG1 [13]): 16.7 µM | IC50 (U-251 [14]): 14.9 µM | IC50 [15]: 15.8 µM

COc1cc2c(cc1O)C(=O)O[C@H]1[C@@H]2[C@H]2C(=C[C@@H]1O)CC[N+]2(C)[O-] (some centres not stated)
IC50 (CCF-STTG1 [17]): 83.2 µM

COc1cc2c(c(Oc3ccc(C=O)cc3)c1OC)C[C@H]1c3c(c(OC)c(OC)c(OC)c3-2)CCN1C
IC50 [18]: 14.5 µg/mL (≈ 28.7 µM)

COc1c2c(cc3[nH]c4ccccc4c(=O)c13)OCO2
IC50 (U-87 MG [10]): 89.3 µM | IC50 [11]: 5.72 µM

COc1cc2c(c(Oc3ccc(C=O)cc3)c1OC)-c1c(OC)c(OC)c(OC)c3ccnc(c13)C2=O
IC50 [18]: 16.3 µg/mL (≈ 32.5 µM)

COc1cc2c(cc1O)C(=O)O[C@@H]1CC=C3CC[N+](C)([O-])[C@H]3[C@H]21 (some centres not stated)
IC50 (CCF-STTG1 [17]): 93 µM

O[C@H]1[C@H]2c3cc4c(cc3C=[N+]3CCC(=C[C@@H]1O)[C@H]23)OCO4
IC50 (U-251 [6]): 11.8 µM | IC50 [7]: 9.4 µM | IC50 (CCF-STTG1 [8]): 10.3 µM | IC50 [9]: 10.2 µM

CC(=O)O[C@H]1c2cc3c(cc2[C@]24C=C[C@H](O)C[C@H]2N1C[C@H]4O)OCO3
IC50 (U-251 [6]): 15.8 µM | IC50 [7]: 28.3 µM | IC50 (CCF-STTG1 [8]): 29.4 µM | IC50 [9]: 29.4 µM

COc1cc2c(c(Oc3ccc(C=O)cc3)c1OC)C[C@H]1c3c(cc(OC)c(OC)c3-2)CCN1C
IC50 [18]: 19.2 µg/mL (≈ 40.5 µM)

N#Cc1cnc2ccccc2c1O
IC50 (SH-SY5Y [16]): 66.8 µM

CC(C)=CC[C@]12C/C=C(/C)Oc3cccc(CO)c3/C(N)=C(/C(=O)C=C1C)C2=O
IC50 (SF-268 [4]): 17.9 µM

CO[C@@H]1C=C[C@@]23c4cc5c(cc4CN(CCc4ccc(O)cc4)[C@@H]2CN(C)[C@H]3C1)OCO5
IC50 [19]: 43.2 µM | IC50 [20]: 41.8 µM | IC50 (SH-SY5Y [21]): 53.7 µM | IC50 (U-251 [22]): 46.6 µM | IC50 [23]: 39.8 µM | IC50 [24]: 43.7 µM

CC/C=C(\C)[C@H](O)[C@H](C)/C=C(C)/C=C(\C)C/C(C)=C/Cc1nc(OC)c(OC)c(O)c1C
IC50 (SF-268 [5]): 45.9 µM
